These results are taken from patent US7361680B2, “Indole compounds useful for the treatment of cancer” (The Regents of the University of California, priority 1999, dated 2008).

One data set has as its system Bcl-2 and Bax. The data set can be described thus: Bcl-2 and Bax levels after etodolac incubation. Type of data set: cell-based. Conditions: data not shown.
The next data set relates to Alva-31 (Prostate). The data set can be described thus: Cytotoxicity by MTT assay, Alva-31. Type of data set: cell-based. Particulars: 72 h, three days continuous exposure. Background: Formazan colour is commonly taken as a measure of viable cells.
For data set [1] the following is noted: cited from earlier work.
Another data set deals with normal B cells. The data set can be described thus: Viability of normal B lymphocytes (anti-CD19 staining, DiOC6 fluorescence). Type of data set: cell-based, human. Conditions: 1.0 mM, 24 hours.
For another data set, the system named is A549 (Lung). The data set can be described thus: Cytotoxicity by MTT assay, A549. The format is cell-based. Particulars: Homo sapiens, 72 h, three days continuous exposure.
In a further data set the test system is Mcl-1. The data set can be described thus: Mcl-1 level in LNCaP cells, SDS-PAGE immunoblot. The format is cell-based.
The next data set concerns MDA-MB-231 (Breast). The data set can be described thus: Cytotoxicity by MTT assay, MDA-MB-231. Type of data set: cell-based. Particulars: Homo sapiens, 72 h, three days continuous exposure.
Data set [2] has as its system normal peripheral blood lymphocytes (PBL). The data set can be described thus: Viability of normal peripheral blood lymphocytes, erythrocin B exclusion assay. Type of data set: cell-based, human. Particulars: FIG. 1.
A further data set concerns PC-3 (Prostate). The data set can be described thus: Cytotoxicity by MTT assay, PC-3. Conditions: 72 h, three days continuous exposure. The format is cell-based.
The test system of a further data set is OVCAR-3 (Ovarian). The data set can be described thus: Cytotoxicity by MTT assay, OVCAR-3. The format is cell-based. Particulars: Homo sapiens, 72 h, three days continuous exposure.
A further data set has as its system prostate cancer tissue. The data set can be described thus: Prostatectomy tissue samples incubated 72 hours, histology. Type of data set: cell-based. From the text:
The tissues were next fixed in 4% paraformaldehyde in PBS, embedded in paraffin, sectioned and stained with hematoxylin and eosin.

A further data set concerns HCT-116 (Colon). The experiment in a line: Cytotoxicity by MTT assay, HCT-116. Type of data set: cell-based. Conditions: Homo sapiens, 72 h, three days continuous exposure.
For data set [3], the system named is CLL cells. The experiment in a line: Viability of CLL cells, erythrocin B exclusion assay.
A further data set concerns Bag-1. The data set can be described thus: Bag-1 level in LNCaP cells, SDS-PAGE immunoblot. Particulars: 100 μM, as early as two hours, FIG. 11B. The format is cell-based. (In western blotting, separated proteins are transferred to a membrane and probed.)
The test system of data set [4] is CLL cells. The experiment in a line: Viability of CLL cells taken from patients before and after oral etodolac. The format is in vivo, human. Conditions: for in vitro survival of CLL cells after treatment compared to before treatment: 400 mg tablet, second tablet 12 hours later.
Protocol: The circles show CLL cells before etodolac treatment. In FIGS. 6-7, the upward pointing triangles represent CLL cell viability after etodolac treatment, wherein the cells are dispersed in medium containing the pretreatment plasma. The downward pointing triangles are CLL cells after treatment maintained in medium with the post-treatment plasma. […] Cells were analyzed within 30 minutes in a Becton Dickinson FAC-Scalibur cytofluorometer. After suitable comprehension, fluorescence was recorded at different wavelength: DiOC6 and DHR at 525 nm (Fl-1) and PI at 600 nm (FL-3).
The next data set relates to SW260 (Colon). The experiment in a line: Cytotoxicity by MTT assay, SW260. Type of data set: cell-based. Conditions: 72 h, three days continuous exposure.
The next data set has as its system LNCaP-FGC (Prostate). The data set can be described thus: Cytotoxicity by MTT assay, LNCaP-FGC. Type of data set: cell-based. Conditions: 72 h, three days continuous exposure.
The subject of data set [5] is CLL cells. The experiment in a line: MTT cytotoxicity assay, CLL cells. The format is cell-based. Conditions: Homo sapiens, CLL cell, 72 hours, duplicate. The method, then: The compounds of the invention were screened for CLL apoptotic activity by flow cytometry and a MTT-based assay. […] Primary PBL cells were acquired from the San Diego Blood Bank, San Diego, Calif. DiOC6 and PI dyes were obtained from Molecular Probes, Eugene, Oreg. Otherwise, unless indicated, all other reagents were purchased from Sigma (St. Louis, Mo.), and all test compounds were dissolved in sterile DMSO.
To get a more concise measure of the EC50 and confirm the flow cytometry results, a MTT (3-(4,5-dimethylthiazol-2-yl)-2,5-diphenyl tertrazolium bromide) assay using a procedure similar to that described by Mosmann, T., J Immunol Methods. 1983, 65, 55-63, was performed on all analogs. This method provided a larger number of datapoints so that a value for the EC50 could be extrapolated.
This assay was based on a procedure described by Mosmann. Briefly, in each well of a 96-well plate, 5×10^5 CLL cells were suspended in 100 μL of […] medium containing 10% FBS, 100 μg/mL penicillin, and 100 μg/mL streptomycin. Serial dilution of test compounds were then performed in duplicate across the plate to establish a concentration gradient from 0 to 1000 μM. After 72 hours of incubation at 37° C., the cells were incubated for 6 more hours in the presence of 20 μL of 5 mg/mL MTT (3-(4,5-dimethylthiazol-2-yl)-2,5-diphenyl tertrazolium bromide) before dissolving the resulting crystals in 50 μL lysis buffer (15% SDS, 15 mM HCl) overnight. Afterwards, the absorbance of each well was measured at […] in a Finstrument Microplate Reader, and the data was analyzed by Graphpad Prism Software, version 2.0b.

Data set [6] can be described thus: Plasma pharmacokinetics of etodolac enantiomers. Type of data set: in vivo. Conditions: 1 gram dosage, human subject.
Another data set relates to multiple myeloma cells. The experiment in a line: Killing of multiple myeloma cells in patient bone marrow (propidium iodide / anti-CD38, FACS). The format is cell-based, human. Particulars: 72 hours, marrow of two patients; FIGS. 9-10.
Another data set has as its system adjuvant polyarthritis. Particulars: reduction in paw volume, prostaglandin synthetase inhibitory activity; cited from earlier work.
The nature of another data set: in vitro. Conditions: human.
The test system of the next data set is normal bone marrow cells. The data set can be described thus: Killing of normal bone marrow cells in patient bone marrow (propidium iodide / anti-CD38, FACS). The format is cell-based, human. Particulars: 72 hours, marrow of two patients; FIGS. 9-10.

Protocol for normal B cells: Then B lymphocytes were identified by staining with anti-CD19 antibody, and viability was assessed by DiOC6 fluorescence.

The term IC50 denotes the midpoint of a concentration-inhibition curve. Low readings indicate greater potency, high ones weaker potency. Turning to `CCc1cccc2c3c([nH]c12)C(CC)(CC(=O)O)OCC3` (racemic) [etodolac, 1,8-Diethyl-1,3,4,9-tetrahydropyrano[3,4-b]indole-1-acetic acid], the “Bcl-2 and Bax levels” value in the data set with Bcl-2 and Bax is reported as “did not alter”. For the same molecule, the IC50 with Alva-31 (Prostate) is more than 1000 µM; with A549 (Lung), more than 1000 µM; in the data set with MDA-MB-231 (Breast) it was more than 1000 µM; in the data set on PC-3 (Prostate), 340 ± 20 µM; with OVCAR-3 (Ovarian), more than 1000 µM; with HCT-116 (Colon), 450 ± 15 µM. The IC50 with SW260 (Colon) was found to be 1000 ± 120 µM; with LNCaP-FGC (Prostate), 400 ± 35 µM. Besides, the elimination half-life in data set [1] (in vivo) was 6 to 8 h. In the data set with normal B cells, the “viability of normal B cells compared to control cultures” value is listed as “did not reduce the viability”. The Mcl-1 levels entry in the data set on Mcl-1 (100 μM, as early as two hours, LNCaP, FIG. 11A) is listed as “fell”. Besides, the “concentration at which significant death of normal PBLs occurred” value in [2] amounted to 800 µM. Moreover, the “activity in prostatectomy samples” value with prostate cancer tissue is “active”. Moreover, in the data set with prostate cancer tissue, the “effect on normal basal cells in prostatectomy samples” value is “did not affect normal basal cells”. In addition, the “toxicity to tumor cells in prostatectomy samples” value in the data set with prostate cancer tissue (FIG. 15) is listed as “selectively toxic to the tumor cells”. The CLL cells killed with CLL cells [3] (200 μM, 48 hour exposure, FIG. 2) turned out to be 50%. For the same molecule, the “cytotoxic effect on CLL cells, either drug alone” value with CLL cells [3] (fludarabine 10 nM or etodolac 10 μM alone, 48 hours, FIG. 3) is given as “ineffective”. Besides, the Bag-1 levels result in the data set with Bag-1 is “fell”. Also, the “in vitro survival of CLL cells after treatment compared to before treatment” value with CLL cells [4] (patient one, FIG. 7) is on record as “less dramatic but similar effect”; in the data set on CLL cells [4] (patient two, FIG. 6), “shortened survival”. For the same molecule, in the data set on CLL cells [4] (patient two, detectable at 12 hours, increases after 24 hours, FIG. 8), the “cell death by apoptosis (DiOC6 staining, dots in left lower box) after versus before treatment” value is “much higher”.

Broadly, the EC50 is the concentration needed to bring the measured effect to its halfway point. As to `CCc1cccc2c3c([nH]c12)[C@@](CC)(CC(=O)O)OCC3` [R-etodolac], the IC50 was more than 1000 µM with Alva-31 (Prostate); more than 1000 µM with A549 (Lung); more than 1000 µM in the data set with MDA-MB-231 (Breast); 150 ± 15 µM with PC-3 (Prostate); more than 1000 µM in the data set on OVCAR-3 (Ovarian); 280 ± 20 µM in the data set on HCT-116 (Colon). Besides, in the data set on LNCaP-FGC (Prostate), the IC50 is 270 ± 50 µM. Further, the maximum plasma concentration entry in data set [1] (200 mg dose, six elderly patients) was “about 33 μM”. The “plasma concentrations of the R-enantiomer relative to the S-enantiomer” value in [1] (after administration of RS-etodolac) is recorded as “about 10 fold higher”. The “Mcl-1 degradation by the enantiomers” value in the data set with Mcl-1 was “induced Mcl-1 degradation at equivalent concentrations”. In addition, the half-maximal effective concentration (EC50) with CLL cells [5] was determined as 247 µM. Also, in data set [6], the “maximal plasma concentration that a dosage should yield” value is given as “about 400 μM”. Also, the “killing of multiple myeloma cells” value with multiple myeloma cells is given as “dose-dependently killed”. For the same molecule, in the data set with prostate cancer tissue, the “activity in prostatectomy samples” value was “active”. The anti-inflammatory activity result in the data set on adjuvant polyarthritis was “No anti-inflammatory activity was discernible”. In the data set on CLL cells [3] (RPMI 1640 with 10% autologous plasma, FIG. 5), the “toxicity of the enantiomers to CLL cells” value was “equivalently cytotoxic”. In the data set “in vitro”, this molecule showed a CC50 at 48 h of approximately 500 µM. In addition, the “killing of normal bone marrow cells” value with normal bone marrow cells is listed as “did not kill”.
